According to patent US12404301B2, “Polypeptide having anti-aging activity, and application thereof” (NANJING ANJI BIOLOGICAL TECHNOLOGY CO., LTD., priority 2020, dated 2025):

Tested on: Wild-type Caenorhabditis elegans
Assay: Experiment on the lifespan of Caenorhabditis elegans
Type: in vivo
Conditions: for longest lifespan of the nematodes / Median survival time (time to half death) / day when death occurs compared with the control group / time to half death compared with the control group (significance) / longest lifespan, days longer than that of the control group / time to half death longer than in the control group: 10 nM; for Median survival time (time to half death): Kaplan-Meier, Median ± SE; for day when death occurs compared with the control group / time to half death compared with the control group (significance): in words; for longest lifespan, days longer than that of the control group / time to half death longer than in the control group: vs control group
Procedure: Synchronization of Caenorhabditis elegans: The NGM plate with a moderate nematode density was selected. The larvae at the L4 stage were picked with a pick needle for about 20 in total and transferred into the blank NGM plate. After they developed into adults and laid the first batch of eggs, all the adults were picked out. About 12 hours later, the eggs hatched into larvae, to obtain the synchronized larvae at the L1 stage. Preliminary preparation for the experiment on the lifespan of Caenorhabditis elegans: The NGM was washed with 1 mL of M9 buffer. The resulting buffer containing the larvae at the L1 stage was collected into an EP tube, placed in a chromatographic cabinet at 4° C. for 5 min, and centrifuged at 1500× g/4° C. for 3 min. The supernatant was removed. After 100 μL of buffer was resuspended, the nematodes were counted under a microscope, and the nematodes were diluted to a concentration of 30 worms/10 μL. 10 μL of diluted nematodes were added into the NGM plate inoculated with E. coli OP50, and the nematodes were counted under the microscope to ensure that there were about 30 nematodes. The NGM plate was placed in a constant temperature incubator to culture. Experiment on the lifespan of Caenorhabditis elegans: After the nematodes at the L1 stage developed to the L4 stage, 100 μL of 15.6 μg/mL 5-FUDR was added for inhibition of Caenorhabditis elegans from oviposition. After the nematodes developed to adults, the dosing started, and the nematodes were divided into a control group and a 10 nM dose group, which was recorded as day 1 of the lifespan experiment. After that, the dosing was carried out every day, the numbers of nematodes that survived, died, and unexpectedly died were observed and recorded every day, and the status of the nematodes was observed and recorded, until the last nematode died. […] The dead nematodes need to be picked out of the plate. The E. coli OP50 needs to be added in time when exhausted. Kaplan-Meier statistical analysis was carried out on the data, and the data results were expressed as Median±SE. Compared with the control group, *P<0.05 represents a significant difference, and **P<0.01 represents a very significant difference.

## PPTTKFAA [WD1]
  longest lifespan of the nematodes: 31 days
  Median survival time (time to half death): 21.000 days
  day when death occurs compared with the control group: no significant difference
  time to half death compared with the control group (significance): does not have a significant difference
  longest lifespan, days longer than that of the control group: 3 days
  time to half death longer than in the control group: 1 days
Day 0, 10 nM
  Number of remaining nematodes: 29
Day 1, 10 nM
  Number of remaining nematodes: 29
Day 2, 10 nM
  Number of remaining nematodes: 29
Day 3, 10 nM
  Number of remaining nematodes: 29
Day 4, 10 nM
  Number of remaining nematodes: 29
Day 5, 10 nM
  Number of remaining nematodes: 29
Day 6, 10 nM
  Number of remaining nematodes: 29
Day 7, 10 nM
  Number of remaining nematodes: 29
Day 8, 10 nM
  Number of remaining nematodes: 29
Day 9, 10 nM
  Number of remaining nematodes: 29
Day 10, 10 nM
  Number of remaining nematodes: 28
Day 11, 10 nM
  Number of remaining nematodes: 27
Day 12, 10 nM
  Number of remaining nematodes: 24
Day 13, 10 nM
  Number of remaining nematodes: 24
Day 14, 10 nM
  Number of remaining nematodes: 22
Day 15, 10 nM
  Number of remaining nematodes: 20
Day 16, 10 nM
  Number of remaining nematodes: 20
Day 17, 10 nM
  Number of remaining nematodes: 19
Day 18, 10 nM
  Number of remaining nematodes: 19
Day 19, 10 nM
  Number of remaining nematodes: 16
Day 20, 10 nM
  Number of remaining nematodes: 15
Day 21, 10 nM
  Number of remaining nematodes: 14
Day 22, 10 nM
  Number of remaining nematodes: 12
Day 23, 10 nM
  Number of remaining nematodes: 10
Day 24, 10 nM
  Number of remaining nematodes: 9
Day 25, 10 nM
  Number of remaining nematodes: 8
Day 26, 10 nM
  Number of remaining nematodes: 6
Day 27, 10 nM
  Number of remaining nematodes: 5
Day 28, 10 nM
  Number of remaining nematodes: 4
Day 29, 10 nM
  Number of remaining nematodes: 1
Day 30, 10 nM
  Number of remaining nematodes: 1
Day 31, 10 nM
  Number of remaining nematodes: 1
Day 32, 10 nM
  Number of remaining nematodes: 0
Day 33, 10 nM
  Number of remaining nematodes: 0
Day 34, 10 nM
  Number of remaining nematodes: 0
Day 35, 10 nM
  Number of remaining nematodes: 0
Day 36, 10 nM
  Number of remaining nematodes: 0
Day 37, 10 nM
  Number of remaining nematodes: 0
Day 38, 10 nM
  Number of remaining nematodes: 0

## PTTKFAA [WD2]
  longest lifespan of the nematodes: 32 days
  Median survival time (time to half death): 21.000 days
  day when death occurs compared with the control group: no significant difference
  time to half death compared with the control group (significance): does not have a significant difference
  longest lifespan, days longer than that of the control group: 4 days
  time to half death longer than in the control group: 1 days
Day 0, 10 nM
  Number of remaining nematodes: 26
Day 1, 10 nM
  Number of remaining nematodes: 26
Day 2, 10 nM
  Number of remaining nematodes: 26
Day 3, 10 nM
  Number of remaining nematodes: 26
Day 4, 10 nM
  Number of remaining nematodes: 26
Day 5, 10 nM
  Number of remaining nematodes: 26
Day 6, 10 nM
  Number of remaining nematodes: 26
Day 7, 10 nM
  Number of remaining nematodes: 26
Day 8, 10 nM
  Number of remaining nematodes: 26
Day 9, 10 nM
  Number of remaining nematodes: 26
Day 10, 10 nM
  Number of remaining nematodes: 26
Day 11, 10 nM
  Number of remaining nematodes: 25
Day 12, 10 nM
  Number of remaining nematodes: 23
Day 13, 10 nM
  Number of remaining nematodes: 23
Day 14, 10 nM
  Number of remaining nematodes: 22
Day 15, 10 nM
  Number of remaining nematodes: 21
Day 16, 10 nM
  Number of remaining nematodes: 21
Day 17, 10 nM
  Number of remaining nematodes: 20
Day 18, 10 nM
  Number of remaining nematodes: 18
Day 19, 10 nM
  Number of remaining nematodes: 16
Day 20, 10 nM
  Number of remaining nematodes: 14
Day 21, 10 nM
  Number of remaining nematodes: 13
Day 22, 10 nM
  Number of remaining nematodes: 11
Day 23, 10 nM
  Number of remaining nematodes: 9
Day 24, 10 nM
  Number of remaining nematodes: 9
Day 25, 10 nM
  Number of remaining nematodes: 7
Day 26, 10 nM
  Number of remaining nematodes: 7
Day 27, 10 nM
  Number of remaining nematodes: 5
Day 28, 10 nM
  Number of remaining nematodes: 3
Day 29, 10 nM
  Number of remaining nematodes: 2
Day 30, 10 nM
  Number of remaining nematodes: 1
Day 31, 10 nM
  Number of remaining nematodes: 1
Day 32, 10 nM
  Number of remaining nematodes: 1
Day 33, 10 nM
  Number of remaining nematodes: 0
Day 34, 10 nM
  Number of remaining nematodes: 0
Day 35, 10 nM
  Number of remaining nematodes: 0
Day 36, 10 nM
  Number of remaining nematodes: 0
Day 37, 10 nM
  Number of remaining nematodes: 0
Day 38, 10 nM
  Number of remaining nematodes: 0

## TTKFAA [WD3]
  longest lifespan of the nematodes: 33 days
  Median survival time (time to half death): 21.000 days
  day when death occurs compared with the control group: no significant difference
  time to half death compared with the control group (significance): does not have a significant difference
  longest lifespan, days longer than that of the control group: 5 days
  time to half death longer than in the control group: 1 days
Day 0, 10 nM
  Number of remaining nematodes: 28
Day 1, 10 nM
  Number of remaining nematodes: 28
Day 2, 10 nM
  Number of remaining nematodes: 28
Day 3, 10 nM
  Number of remaining nematodes: 28
Day 4, 10 nM
  Number of remaining nematodes: 28
Day 5, 10 nM
  Number of remaining nematodes: 28
Day 6, 10 nM
  Number of remaining nematodes: 28
Day 7, 10 nM
  Number of remaining nematodes: 28
Day 8, 10 nM
  Number of remaining nematodes: 28
Day 9, 10 nM
  Number of remaining nematodes: 28
Day 10, 10 nM
  Number of remaining nematodes: 28
Day 11, 10 nM
  Number of remaining nematodes: 27
Day 12, 10 nM
  Number of remaining nematodes: 27
Day 13, 10 nM
  Number of remaining nematodes: 27
Day 14, 10 nM
  Number of remaining nematodes: 22
Day 15, 10 nM
  Number of remaining nematodes: 20
Day 16, 10 nM
  Number of remaining nematodes: 20
Day 17, 10 nM
  Number of remaining nematodes: 20
Day 18, 10 nM
  Number of remaining nematodes: 20
Day 19, 10 nM
  Number of remaining nematodes: 17
Day 20, 10 nM
  Number of remaining nematodes: 15
Day 21, 10 nM
  Number of remaining nematodes: 14
Day 22, 10 nM
  Number of remaining nematodes: 11
Day 23, 10 nM
  Number of remaining nematodes: 10
Day 24, 10 nM
  Number of remaining nematodes: 9
Day 25, 10 nM
  Number of remaining nematodes: 6
Day 26, 10 nM
  Number of remaining nematodes: 6
Day 27, 10 nM
  Number of remaining nematodes: 5
Day 28, 10 nM
  Number of remaining nematodes: 4
Day 29, 10 nM
  Number of remaining nematodes: 2
Day 30, 10 nM
  Number of remaining nematodes: 1
Day 31, 10 nM
  Number of remaining nematodes: 1
Day 32, 10 nM
  Number of remaining nematodes: 1
Day 33, 10 nM
  Number of remaining nematodes: 1
Day 34, 10 nM
  Number of remaining nematodes: 0
Day 35, 10 nM
  Number of remaining nematodes: 0
Day 36, 10 nM
  Number of remaining nematodes: 0
Day 37, 10 nM
  Number of remaining nematodes: 0
Day 38, 10 nM
  Number of remaining nematodes: 0
